Measured values published in paper PMC6586795 (Nature Communications, 2019).

Biological target: T1, Drosophila melanogaster dopamine transporter (dDAT) (Drosophila melanogaster, UniProt Q7K4Y6)
T1 construct: gene DAT; Full-length wild-type dDAT with a C-terminal thrombin site and 8 histidine-tag
Test: [3H]nisoxetine saturation binding, scintillation proximity assay on purified dDAT

T1 sequence (Q7K4Y6 whole entry): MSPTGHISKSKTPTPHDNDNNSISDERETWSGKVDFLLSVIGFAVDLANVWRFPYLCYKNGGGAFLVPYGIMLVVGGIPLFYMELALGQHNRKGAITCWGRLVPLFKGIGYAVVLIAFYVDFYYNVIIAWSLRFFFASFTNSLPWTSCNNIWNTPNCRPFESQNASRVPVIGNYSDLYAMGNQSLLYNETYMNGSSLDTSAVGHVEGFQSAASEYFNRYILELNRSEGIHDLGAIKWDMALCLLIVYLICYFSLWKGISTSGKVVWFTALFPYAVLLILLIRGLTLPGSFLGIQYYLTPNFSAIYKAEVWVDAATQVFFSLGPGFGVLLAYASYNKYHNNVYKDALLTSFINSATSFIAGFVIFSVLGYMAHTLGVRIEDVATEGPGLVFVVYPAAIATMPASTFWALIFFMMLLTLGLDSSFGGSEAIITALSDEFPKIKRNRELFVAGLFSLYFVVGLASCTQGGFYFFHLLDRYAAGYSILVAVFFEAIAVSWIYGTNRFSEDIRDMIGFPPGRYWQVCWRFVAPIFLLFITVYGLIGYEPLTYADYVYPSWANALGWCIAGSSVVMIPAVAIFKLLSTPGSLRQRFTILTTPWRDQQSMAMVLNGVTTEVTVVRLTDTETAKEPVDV

CNCCC(Oc1ccccc1OC)c1ccccc1 (stereo not shown) [nisoxetine]
Kd: 80 ± 6 nM
